Like-named read-outs stand apart in the source and are kept apart here.
Key:
[1] = target: T1, catalytic domain of human Bub1 (amino acids 704-1085) (Homo sapiens, UniProt O43683); assay: Bub1 kinase assay (TR-FRET); type: biochemical; settings: 10 μM ATP, avg, read-out: Bub1 avg (IC50 [mol/l])
T1 construct: catalytic domain of human Bub1 (amino acids 704-1085); His6 (N); made in house; host or cells: insect cells (Hi5)
Summary of the method: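 Readout is the 665/620 nm TR-FRET ratio from anti-phosphoserine antibody, Eu-labelled anti-mouse IgG and streptavidin-XL665, scaled between no-enzyme and uninhibited controls. Reaction: 1 μM biotinylated peptide, 10 μM ATP, 60 min, 22 °C, after 15 min compound preincubation with His6-Bub1 (704-1085, insect-expressed, ~200 ng/ml).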

HeLa = assay: Proliferation assay (crystal violet), HeLa; type: cell-based; settings: HeLa cells, 4 days incubation, crystal violet staining, read-out: IC50 inhibition of proliferation, HeLa
Summary of the method: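 Crystal violet proliferation readout, 4-day compound incubation, 0.001–10 μM, final DMSO 0.5%. Zero-point plate stained at time of dosing set as 0%, untreated control as 100%; IC50 via 4-parameter fit.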

T1 sequence (O43683 704-1085): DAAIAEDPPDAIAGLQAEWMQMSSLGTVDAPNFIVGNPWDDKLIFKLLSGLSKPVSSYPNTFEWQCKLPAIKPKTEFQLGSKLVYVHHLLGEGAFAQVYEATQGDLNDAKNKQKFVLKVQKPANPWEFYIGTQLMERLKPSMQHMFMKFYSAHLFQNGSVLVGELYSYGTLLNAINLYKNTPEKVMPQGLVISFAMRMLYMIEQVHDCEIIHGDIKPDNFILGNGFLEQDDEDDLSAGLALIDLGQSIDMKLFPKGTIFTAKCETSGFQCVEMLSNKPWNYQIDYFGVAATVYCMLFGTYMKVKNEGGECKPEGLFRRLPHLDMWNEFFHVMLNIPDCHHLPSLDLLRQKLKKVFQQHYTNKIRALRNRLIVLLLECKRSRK

Structure (SMILES) | IC50 [1] [µM] | IC50 (HeLa; Homo sapiens, HeLa, 96 h) [µM] | IC50 (HeLa) [µM]
Cc1nsc(Nc2cnc3ccccc3n2)c1C(=O)Nc1cccc(C(=O)OC(C)(C)C)c1 [Example 49, tert-Butyl 3-({[3-methyl-5-(quinoxalin-2-ylamino)-1,2-thiazol-4-yl]carbonyl}amino)-benzoate] | ≥ 20 | 0.89 | –
Cc1nsc(Nc2ccc(C#N)cn2)c1C(=O)Nc1ccc(OC2CCCN(CC(F)F)C2)nc1 (centres unmarked) [Example 39, 5-[(5-Cyanopyridin-2-yl)amino]-N-(6-{[1-(2,2-difluoroethyl)piperidin-3-yl]oxy}-pyridin-3-yl)-3-methyl-1,2-thiazole-4-carboxamide] | ≥ 20 | 1.1 | –
Cc1nsc(Nc2cnc3ccccc3n2)c1C(=O)Nc1cccc(C(=O)NC(C)(C)C)c1 [Example 53, N-[3-(tert-Butylcarbamoyl)-phenyl]-3-methyl-5-(quinoxalin-2-ylamino)-1,2-thiazole-4-carboxamide] | 9 | 2.7 | –
Cc1nsc(Nc2ccc(C#N)cn2)c1C(=O)Nc1ccc(OC2CCCN(CC(F)(F)F)C2)nc1 (centres unmarked) [Example 40, 5-[(5-Cyanopyridin-2-yl)amino]-3-methyl-N-(6-{[1-(2,2,2-trifluoroethyl)piperidin-3-yl]oxy}pyridin-3-yl)-1,2-thiazole-4-carboxamide] | ≥ 20 | 0.54 | –
Cc1nsc(Nc2cnc3ccccc3n2)c1C(=O)Nc1cccc(C(=O)N2CCOCC2)c1 [Example 52, 3-Methyl-N-[3-(morpholin-4-ylcarbonyl)phenyl]-5-(quinoxalin-2-ylamino)-1,2-thiazole-4-carboxamide] | 9 | 10 | –
Cc1nsc(Nc2cnc(C(F)(F)F)cn2)c1C(=O)Nc1ccc(OC[C@H]2CCCN(CCC(F)(F)F)C2)nc1 [Example 378, 3-methyl-5-{[5-(trifluoromethyl)pyrazin-2-yl]amino}-N-(6-{[(3S)-1-(3,3,3-trifluoropropyl)piperidin-3-yl]methoxy}pyridin-3-yl)-1,2-thiazole-4-carboxamide] | ≥ 20 | 0.29 | –
Cc1nsc(Nc2cc(C#N)ccn2)c1C(=O)Nc1ccc(OCCCN)nc1 [Example 44, N-[6-(3-Aminopropoxy)pyridin-3-yl]-5-[(4-cyanopyridin-2-yl)amino]-3-methyl-1,2-thiazole-4-carboxamide] | ≥ 20 | 10 | –
Cc1nsc(Nc2cnc3ccccc3n2)c1C(=O)Nc1cccc(C(=O)N[C@@H](CCC(N)=O)C(=O)OC(C)(C)C)c1 [Example 56, tert-butyl N^2-[3-({[3-methyl-5-(quinoxalin-2-ylamino)-1,2-thiazol-4-yl]carbonyl}amino)-benzoyl]glutaminate] | ≥ 20 | 9.8 | –
Cc1nsc(Nc2ccc(C#N)cn2)c1C(=O)Nc1ccc(OC2CCCN(CCF)C2)nc1 (centres unmarked) [Example 38, 5-[(5-Cyanopyridin-2-yl)amino]-N-(6-{[1-(2-fluoroethyl)piperidin-3-yl]oxy}pyridin-3-yl)-3-methyl-1,2-thiazole-4-carboxamide] | ≥ 20 | 8.1 | –
Cc1nsc(Nc2cnc3ccccc3n2)c1C(=O)Nc1cccc(C(=O)O)c1 [Example 51, 3-({[3-Methyl-5-(quinoxalin-2-ylamino)-1,2-thiazol-4-yl]carbonyl}amino)benzoic acid] | 1.9 | 10 | –
Cc1nsc(Nc2ccc(C#N)cn2)c1C(=O)Nc1ccc(OC[C@H]2CCN(CC(F)(F)F)C2)nc1 [Example 405, 5-[(5-Cyanopyridin-2-yl)amino]-3-methyl-N-(6-{[(35)-1-(2,2,2-trifluoroethyl)pyrrolidin-3-yl]methoxy}pyridin-3-yl)-1,2-thiazole-4-carboxamide] | > 20 | 0.44 | –
Cc1nsc(Nc2cnc3ccccc3n2)c1C(=O)Nc1cccc(C(=O)NCC(=O)OC(C)(C)C)c1 [Example 54, tert-Butyl N-[3-({[3-methyl-5-(quinoxalin-2-ylamino)-1,2-thiazol-4-yl]carbonyl}amino)-benzoyl]glycinate] | 16 | 10 | –
Cc1nsc(Nc2ccc(C#N)cn2)c1C(=O)Nc1ccc(OC2CCCN(C(=O)OC(C)(C)C)C2)nc1 (centres unmarked) [Example 36, tert-Butyl 3-({5-[({5-[(5-cyanopyridin-2-yl)amino]-3-methyl-1,2-thiazol-4-yl}-carbonyl)amino]pyridin-2-yl}oxy)piperidine-1-carboxylate] | ≥ 20 | 1.1 | –
Cc1nsc(Nc2cncc(C(F)(F)F)n2)c1C(=O)Nc1ccc(OCCN(C)C(=O)OC(C)(C)C)nc1 [Example 430, tert-Butyl methyl{2-[(5-{[(3-methyl-5-{[6-(trifluoromethyl)pyrazin-2-yl]amino}-1,2-thiazol-4-yl)carbonyl]amino}pyridin-2-yl)oxy]ethyl}carbannate] | > 20 | 0.92 | –
Cc1nsc(Nc2cnc3ccccc3n2)c1C(=O)Nc1ccc(NCCN(C)C(=O)OC(C)(C)C)nc1 [Example 434, tert-Butyl methyl(2-{[5-({[3-methyl-5-(quinoxalin-2-ylamino)-1,2-thiazol-4-yl]carbonyl}amino)pyridin-2-yl]amino}ethyl)carbamate] | > 20 | 8 | –
Cc1nsc(Nc2cnccn2)c1C(=O)Nc1ccc(OC2CCCN(C(=O)OC(C)(C)C)C2)nc1 (centres unmarked) [Example 41, tert-Butyl 3-{[5-({[3-methyl-5-(pyrazin-2-ylamino)-1,2-thiazol-4-yl]carbonyl}amino)-pyridin-2-yl]oxy}piperidine-1-carboxylate] | ≥ 20 | 10 | –

The next lines start with the values.

IC50 [1] [µM] | IC50 (HeLa; Homo sapiens, HeLa, 96 h) [µM] | IC50 (HeLa) [µM] | Structure (SMILES)
≥ 20 | 1.3 | – | Cc1nsc(Nc2cnc(C(F)(F)F)cn2)c1C(=O)Nc1ccc(OCCNC(=O)C(F)(F)F)nc1 [Example 425, 3-Methyl-N-(6-{2-[(trifluoroacetyl)amino]ethoxy}pyridin-3-yl)-5-{[5-(trifluoro-methyl)pyrazin-2-yl]amino}-1,2-thiazole-4-carboxamide]
> 20 | > 10 | – | Cc1nsc(Nc2cnc3ccccc3n2)c1C(=O)Nc1cccc(NC(=O)C(F)(F)F)c1 [Example 432, 3-Methyl-5-(quinoxalin-2-ylamino)-N-{3-[(trifluoroacetyl)amino]phenyl}-1,2-thiazole-4-carboxamide]
≥ 20 | 0.57 | – | COCCOc1ccc(NC(=O)c2c(C)nsc2Nc2nc3c(C(F)(F)F)cccc3s2)cc1F [Example 1, N-[3-Fluoro-4-(2-methoxyethoxy)phenyl]-3-methyl-5-{[4-(trifluoromethyl)-1,3-benzothiazol-2-yl]amino}-1,2-thiazole-4-carboxamide]
≥ 20 | 0.91 | – | COCCOc1ccc(NC(=O)c2c(C)nsc2Nc2nc3c(C(F)(F)F)cccc3s2)cn1 [Example 3, N-[6-(2-Methoxyethoxy)pyridin-3-yl]-3-methyl-5-{[4-(trifluoromethyl)-1,3-benzo-thiazol-2-yl]amino}-1,2-thiazole-4-carboxamide]
> 20 | 1.3 | – | Cc1nsc(Nc2cnc(C(F)(F)F)cn2)c1C(=O)Nc1ccc(OCCCNC(=O)C(F)(F)F)nc1 [Example 428, 3-Methyl-N-(6-{3-[(trifluoroacetyl)amino]propoxy}pyridin-3-yl)-5-{[5-(trifluoro-methyl)pyrazin-2-yl]amino}-1,2-thiazole-4-carboxamide]
≥ 20 | 1.8 | – | Cc1nsc(Nc2nc3c(C(F)(F)F)cccc3s2)c1C(=O)Nc1ccc(OCCO)c(F)c1 [Example 4, N-[3-Fluoro-4-(2-hydroxyethoxy)phenyl]-3-methyl-5-{[4-(trifluoromethyl)-1,3-benzothiazol-2-yl]amino}-1,2-thiazole-4-carboxamide]
> 20 | 0.45 | – | Cc1nsc(Nc2cnc(C(F)(F)F)cn2)c1C(=O)Nc1ccc(F)c(OC[C@@H]2CCN(CC(F)F)C2)c1 [Example 403, N-(3-{[(3R)-1-(2,2-difluoroethyl)pyrrolidin-3-yl]methoxy}-4-fluorophenyl)-3-methyl-5-{[5-(trifluoromethyl)pyrazin-2-yl]amino}-1,2-thiazole-4-carboxamide]
> 20 | 0.26 | – | Cc1nsc(Nc2cnc(C(F)(F)F)cn2)c1C(=O)Nc1ccc(F)c(O[C@@H]2CCN(CC(F)F)C2)c1 [Example 412, N-(3-{[(3R)-1-(2,2-Difluoroethyl)pyrrolidin-3-yl]oxy}-4-fluorophenyl)-3-methyl-5-{[5-(trifluoromethyl)pyrazin-2-yl]amino}-1,2-thiazole-4-carboxamide]
> 20 | 0.29 | – | Cc1nsc(Nc2cnc(C(F)(F)F)cn2)c1C(=O)Nc1ccc(F)c(O[C@@H]2CCN(CCC(F)(F)F)C2)c1 [Example 414, N-(4-Fluoro-3-{[(3R)-1-(3,3,3-trifluoropropyl)pyrrolidin-3-yl]oxy}phenyl)-3-methyl-5-{[5-(trifluoromethyl)pyrazin-2-yl]amino}-1,2-thiazole-4-carboxamide]
> 20 | 0.22 | 0.41 | Cc1nsc(Nc2cnc(C(F)(F)F)cn2)c1C(=O)Nc1ccc(F)c(OCC2CCN(CC(F)(F)F)C2)c1 (centres unmarked) [Example 318, N-(4-fluoro-3-{[1-(2,2,2-trifluoroethyl)pyrrolidin-3-yl]methoxy}phenyl)-3-methyl-5-{[5-(trifluoromethyl)pyrazin-2-yl]amino}-1,2-thiazole-4-carboxamide]
